# Experimental data from patent US12655130B2 (ASSEMBLY BIOSCIENCES, INC., priority 2020, dated 2026).
# pEC50: −log10 of the molar value.
# Test system: HBV viral load (viral production from HepAD38 cells)
# Assay: Activity of test compounds on viral production from HepAD38 cells (viral load by qPCR of HBV core sequence)
# Type: cell-based
# Details: Hepatitis B virus, HePAD38, 120 h, viral load lowering, 5 days, qPCR of supernatant, read-out: VL HepAD38 EC50 range
# In short: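 EC50 and CC50 come from four-parameter logistic fits: HBV core DNA in supernatant by TaqMan qPCR against DNA standards, normalised to DMSO controls, and cell viability by CellTiter-Glo. Cells were plated at 50,000/well without tetracycline (2% FBS) and exposed to compounds (highest 10 μM) for 5 days, 37 °C.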
row,SMILES,pEC50
1,"Cn1cnc(C2CC3CC(O)(c4cc(OCC(O)CO)nn4C)CC3C2)c1C(=O)Nc1ccc(F)c(Cl)c1 (stereo not drawn) [Example 204, N-(3-Chloro-4-fluorophenyl)-4-(5-(3-(2,3-dihydroxypropoxy)-1-methyl-1H-pyrazol-5-yl)-5-hydroxyoctahydropentalen-2-yl)-1-methyl-1H-imidazole-5-carboxamide]",> 8.00
2,"Cc1nn(C)c(C2(O)CC3CC(c4ncn(C)c4C(=O)Nc4ccc(F)c(Cl)c4)CC3C2)c1F (stereo not drawn) [Example 92, N-(3-chloro-4-fluorophenyl)-4-(5-(4-fluoro-1,3-dimethyl-1H-pyrazol-5-yl)-5-hydroxyoctahydropentalen-2-yl)-1-methyl-1H-imidazole-5-carboxamide]",> 8.00
3,"Cn1cnc(C2CC3CC(O)(c4c(F)c(OCCO)nn4C)CC3C2)c1C(=O)Nc1ccc(F)c(Cl)c1 (stereo not drawn) [Example 213, N-(3-Chloro-4-fluorophenyl)-4-(5-(4-fluoro-3-(2-hydroxyethoxy)-1-methyl-1H-pyrazol-5-yl)-5-hydroxyoctahydropentalen-2-yl)-1-methyl-1H-imidazole-5-carboxamide]",> 8.00
4,"CCNc1nc(C2CC3CC(O)CC3C2)c(C(=O)Nc2ccc(F)c(Cl)c2)n1C (stereo not drawn) [Example 41, 5-[-5-Hydroxy-1,2,3,3a,4,5,6,6a-octahydropentalen-2-yl]-N-(3-chloro-4-fluorophenyl)-2-(ethylamino)-3-methyl-4-imidazolecarboxamide]",7.30 to 8.00
5,"Cn1cc(C2(O)CC3CC(c4ncn(C)c4C(=O)Nc4ccc(F)c(Cl)c4)CC3C2)cn1 (stereo not drawn) [Example 121, N-(3-chloro-4-fluorophenyl)-4-(5-hydroxy-5-(1-methyl-1H-pyrazol-4-yl)octahydropentalen-2-yl)-1-methyl-1H-imidazole-5-carboxamide]",> 8.00
6,"O=C(Nc1ccc(F)c(Cl)c1)c1sc(C(F)(F)F)nc1C1CC2CC(O)CC2C1 (stereo not drawn) [Example 37, N-(3-chloro-4-fluorophenyl)-4-(5-hydroxyoctahydropentalen-2-yl)-2-(trifluoromethyl)thiazole-5-carboxamide]",6.30 to 7.30
7,"Cn1cnc(C2CC3CC(O)(c4cc(NCC(C)(C)O)nn4C)CC3C2)c1C(=O)Nc1ccc(F)c(Cl)c1 (stereo not drawn) [Example 214, N-(3-Chloro-4-fluorophenyl)-4-(5-hydroxy-5-(3-((2-hydroxy-2-methylpropyl)amino)-1-methyl-1H-pyrazol-5-yl)octahydropentalen-2-yl)-1-methyl-1H-imidazole-5-carboxamide]",> 8.00
8,"Cn1cnc(C2CC3CC(O)(CS(C)(=O)=O)CC3C2)c1C(=O)Nc1ccc(F)c(Cl)c1 (single isomer, unassigned) [Example 3, N-(3-Chloro-4-fluorophenyl)-4-(5-hydroxy-5-((methylsulfonyl)methyl)octahydropentalen-2-yl)-1-methyl-1H-imidazole-5-carboxamide]",> 8.00
9,"Cn1cnc(C2CC3CC(O)(Cn4ccc(Cl)n4)CC3C2)c1C(=O)Nc1ccc(F)c(Cl)c1 (stereo not drawn) [Example 101, 4-(5-((3-Chloro-1H-pyrazol-1-yl)methyl)-5-hydroxyoctahydropentalen-2-yl)-N-(3-chloro-4-fluorophenyl)-1-methyl-1H-imidazole-5-carboxamide]",> 8.00
10,"Cn1cnc(C2CC3CC(O)(c4[nH]ncc4F)CC3C2)c1C(=O)Nc1ccc(F)c(Cl)c1 (stereo not drawn) [Example 148, N-(3-Chloro-4-fluorophenyl)-4-(5-(4-fluoro-1H-pyrazol-5-yl)-5-hydroxyoctahydropentalen-2-yl)-1-methyl-1H-imidazole-5-carboxamide]",> 8.00
11,"Cc1nc(C2CC3CC(O)(c4nccn4C)CC3C2)c(C(=O)Nc2ccc(F)c(Cl)c2)n1C (single isomer, unassigned) [Example 27, N-(3-Chloro-4-fluorophenyl)-4-(5-hydroxy-5-(1-methyl-1H-imidazol-2-yl)octahydropentalen-2-yl)-1,2-dimethyl-1H-imidazole-5-carboxamide]",> 8.00
12,"[2H]C([2H])([2H])C1(O)CC2CC(c3ncn(C)c3C(=O)Nc3ccc(F)c(Cl)c3)CC2C1 (single isomer, unassigned) [Example 80, N-(3-Chloro-4-fluorophenyl)-4(5-hydroxy-5-(methyl-d3)octahydropentalen-2-yl)-1-methyl-1H-imidazole-5-carboxamide]",6.30 to 7.30
13,"Cn1cnc(C2CC3CC(O)(c4[nH]nc(C(F)(F)F)c4Br)CC3C2)c1C(=O)Nc1ccc(F)c(C#N)c1 (stereo not drawn) [Example 195, 4-(5-(4-Bromo-3-(trifluoromethyl)-1H-pyrazol-5-yl)-5-hydroxyoctahydropentalen-2-yl)-N-(3-cyano-4-fluorophenyl)-1-methyl-1H-imidazole-5-carboxamide]",> 8.00
14,"CCn1nc(C(F)F)cc1C1(O)CC2CC(c3ncn(C)c3C(=O)Nc3ccc(F)c(C#N)c3)CC2C1 (stereo not drawn) [Example 192, N-(3-Cyano-4-fluorophenyl)-4-(5-(3-(difluoromethyl)-1-ethyl-1H-pyrazol-5-yl)-5-hydroxyoctahydropentalen-2-yl)-1-methyl-1H-imidazole-5-carboxamide]",> 8.00
15,"CCn1cc(C(F)(F)F)c(C2(O)CC3CC(c4ncn(C)c4C(=O)Nc4ccc(F)c(Cl)c4)CC3C2)n1 (stereo not drawn) [Example 159, N-(3-Chloro-4-fluorophenyl)-4-(5-(1-ethyl-4-(trifluoromethyl)-1H-pyrazol-3-yl)-5-hydroxyoctahydropentalen-2-yl)-1-methyl-1H-imidazole-5-carboxamide]",> 8.00
16,"Cn1cnc(C2CC3CC(O)(c4cnn(C)c4C(F)F)CC3C2)c1C(=O)Nc1ccc(F)c(Cl)c1 (stereo not drawn) [Example 147, N-(3-Chloro-4-fluorophenyl)-4-(5-(5-(difluoromethyl)-1-methyl-1H-pyrazol-4-yl)-5-hydroxyoctahydropentalen-2-yl)-1-methyl-1H-imidazole-5-carboxamide]",> 8.00
17,"Cn1cnc(C2CC3CC(O)(c4cc(C#N)nn4C)CC3C2)c1C(=O)Nc1ccc(F)c(Cl)c1 (stereo not drawn) [Example 57, N-(3-Chloro-4-fluorophenyl)-4-(5-(3-cyano-1-methyl-1H-pyrazol-5-yl)-5-hydroxyoctahydropentalen-2-yl)-1-methyl-1H-imidazole-5-carboxamide]",> 8.00
18,"Cn1cnc(C2CC3CC(O)(c4ccccc4)CC3C2)c1C(=O)Nc1ccc(F)c(Cl)c1 (stereo not drawn) [Example 8, N-(3-Chloro-4-fluorophenyl)-4-(5-hydroxy-5-phenyloctahydropentalen-2-yl)-1-methyl-1H-imidazole-5-carboxamide]",> 8.00
19,"Cn1cnc(C2CC3CC(O)(c4[nH]ncc4C(F)(F)F)CC3C2)c1C(=O)Nc1ccc(F)c(Cl)c1 (stereo not drawn) [Example 149, N-(3-Chloro-4-fluorophenyl)-4-(5-hydroxy-5-(4-(trifluoromethyl)-1H-pyrazol-5-yl)octahydropentalen-2-yl)-1-methyl-1H-imidazole-5-carboxamide]",> 8.00
20,"CCn1nc(C(F)(F)F)cc1C1(O)CC2CC(c3ncn(C)c3C(=O)Nc3ccc(F)c(Cl)c3)CC2C1 (stereo not drawn) [Example 173, N-(3-Chloro-4-fluorophenyl)-4-(5-(1-ethyl-3-(trifluoromethyl)-1H-pyrazol-5-yl)-5-hydroxyoctahydropentalen-2-yl)-1-methyl-1H-imidazole-5-carboxamide]",> 8.00
21,"Cn1cc(C2(O)CC3CC(c4nc(Cl)n(C)c4C(=O)Nc4ccc(F)c(Cl)c4)CC3C2)c(C(F)(F)F)n1 (stereo not drawn) [Example 110, 2-Chloro-N-(3-chloro-4-fluorophenyl)-4-(5-hydroxy-5-(1-methyl-3-(trifluoromethyl)-1H-pyrazol-4-yl)octahydropentalen-2-yl)-1-methyl-1H-imidazole-5-carboxamide]",> 8.00
22,"Cn1cc(C2(O)CC3CC(c4ncn(C)c4C(=O)Nc4ccc(F)c(Cl)c4)CC3C2)c(C(O)C(F)(F)F)n1 (stereo not drawn) [Example 191, N-(3-Chloro-4-fluorophenyl)-4-(5-hydroxy-5-(1-methyl-3-(2,2,2-trifluoro-1-hydroxyethyl)-1H-pyrazol-4-yl)octahydropentalen-2-yl)-1-methyl-1H-imidazole-5-carboxamide]",6.30 to 7.30
23,"CC(=O)c1nn(C)c(C2(O)CC3CC(c4ncn(C)c4C(=O)Nc4ccc(F)c(Cl)c4)CC3C2)c1F (stereo not drawn) [Example 65, 4-(5-(3-Acetyl-4-fluoro-1-methyl-1H-pyrazol-5-yl)-5-hydroxyoctahydropentalen-2-yl)-N-(3-chloro-4-fluorophenyl)-1-methyl-1H-imidazole-5-carboxamide]",> 8.00
24,"Cn1cnc(C2CC3CC(O)(c4cc(N)nn4C)CC3C2)c1C(=O)Nc1ccc(F)c(Cl)c1 (stereo not drawn) [Example 51, 4-(5-(3-Amino-1-methyl-1H-pyrazol-5-yl)-5-hydroxyoctahydropentalen-2-yl)-N-(3-chloro-4-fluorophenyl)-1-methyl-1H-imidazole-5-carboxamide]",> 8.00
25,"Cn1cnc(C2CC3CC(O)(c4c(Cl)cnn4C)CC3C2)c1C(=O)Nc1ccc(F)c(Cl)c1 (stereo not drawn) [Example 122, 4-(5-(4-chloro-1-methyl-1H-pyrazol-5-yl)-5-hydroxyoctahydro-pentalen-2-yl)-N-(3-chloro-4-fluorophenyl)-1-methyl-1H-imidazole-5-carboxamide]",> 8.00
26,"CC(=O)NC(C)c1nn(C)cc1C1(O)CC2CC(c3ncn(C)c3C(=O)Nc3ccc(F)c(Cl)c3)CC2C1 (stereo not drawn) [Example 185, 4-(5-(3-(1-Acetamidoethyl)-1-methyl-1H-pyrazol-4-yl)-5-hydroxyoctahydropentalen-2-yl)-N-(3-chloro-4-fluorophenyl)-1-methyl-1H-imidazole-5-carboxamide]",> 8.00

# Same assay, conditions: viral load lowering, 5 days, qPCR of supernatant, read-out: VL HepAD38 EC50 range
row,SMILES,pEC50
1,"O=C(Nc1ccc(F)c(Cl)c1)c1c(C2CC3CC(O)CC3C2)nc2n1CCC2 (single isomer, unassigned) [Example 33, N-(3-Chloro-4-fluorophenyl)-2-(5-hydroxyoctahydropentalen-2-yl)-6,7-dihydro-5H-pyrrolo[1,2-a]imidazole-3-carboxamide]",> 8.00
